Measurements from US12404241B2 (Celgene Corporation, priority 2018, dated 2025).
Where a name gives a salt, the structure may show the parent alone.

Target: T1, AR (Homo sapiens, UniProt P10275)
T1 construct: endogenous in cells; host or cells: VCaP cells
T1 sequence (P10275 1-920): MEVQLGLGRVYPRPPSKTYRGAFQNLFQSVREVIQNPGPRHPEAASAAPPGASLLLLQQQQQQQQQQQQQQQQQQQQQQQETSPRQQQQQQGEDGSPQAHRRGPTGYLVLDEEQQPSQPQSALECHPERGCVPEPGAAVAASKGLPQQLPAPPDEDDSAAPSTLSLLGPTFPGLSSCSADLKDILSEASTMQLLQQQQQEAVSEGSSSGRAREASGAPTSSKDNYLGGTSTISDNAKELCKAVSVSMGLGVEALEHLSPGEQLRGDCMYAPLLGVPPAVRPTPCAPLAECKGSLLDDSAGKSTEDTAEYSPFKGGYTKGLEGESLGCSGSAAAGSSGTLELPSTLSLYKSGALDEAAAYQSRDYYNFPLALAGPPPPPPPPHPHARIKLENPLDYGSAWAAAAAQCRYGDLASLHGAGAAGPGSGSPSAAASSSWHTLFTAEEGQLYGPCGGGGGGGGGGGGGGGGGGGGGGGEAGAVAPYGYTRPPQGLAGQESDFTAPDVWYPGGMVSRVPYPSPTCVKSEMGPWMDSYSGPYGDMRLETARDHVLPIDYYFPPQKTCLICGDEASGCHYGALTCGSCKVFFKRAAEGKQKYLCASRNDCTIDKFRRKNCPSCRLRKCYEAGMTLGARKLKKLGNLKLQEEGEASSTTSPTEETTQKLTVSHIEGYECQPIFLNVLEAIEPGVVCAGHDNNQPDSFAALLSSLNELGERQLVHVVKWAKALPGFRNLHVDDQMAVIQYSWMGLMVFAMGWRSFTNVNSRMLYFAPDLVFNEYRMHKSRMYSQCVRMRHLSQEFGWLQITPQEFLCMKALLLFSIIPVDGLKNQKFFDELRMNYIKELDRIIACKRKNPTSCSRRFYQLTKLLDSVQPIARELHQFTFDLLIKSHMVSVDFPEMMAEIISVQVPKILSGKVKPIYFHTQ
Assay: VCAP AR Degradation Assay
Assay type: cell-based
Conditions: for Y (AR degradation efficiency, % of DMSO control): class symbols *; for DC50: class symbols A-C, read-out: DC50
Summary of the method: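 AR protein in lysates quantified by sandwich ELISA after 24 h exposure of VCaP cells at 37 °C to 10 concentrations (1:3 steps, 5 μM top, final). Four-parameter logistic fit of percent-of-DMSO levels gave DC50 (50% degradation), EC50 and minimal AR level Y.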

SMILES | Y (AR degradation efficiency, % of DMSO control) | DC50 [nM]
CC(O)c1cc(N2C(=S)N(c3cnc(C#N)c(C(F)(F)F)c3)C(=O)C2(C)C)ccc1OCCN1CCN(CC(=O)Nc2cc(Cl)cc(NC3CCC(=O)NC3=O)c2)CC1 (centres unmarked) [Example 92, N-(3-chloro-5-(2,6-dioxopiperidin-3-ylamino)phenyl)-2-(4-(2-(4-(3-(6-cyano-5-(trifluoromethyl)pyridin-3-yl)-5,5-dimethyl-4-oxo-2-thioxoimidazolidin-1-yl)-2-(1-hydroxyethyl)phenoxy)ethyl)piperazin-1-yl)acetamide] | *** (35%<Y<50%) | 100 to 500
CC(C)c1cc(N2C(=S)N(c3ccc(C#N)c(C(F)(F)F)c3)C(=O)C2(C)C)ccc1OCCN1C[C@@H](C)N(CC(=O)Nc2cc(Cl)cc(NC3CCC(=O)NC3=O)c2)[C@@H](C)C1 (stereo partly drawn) [Example 208, N-(3-chloro-5-(2,6-dioxopiperidin-3-ylamino)phenyl)-2-((2S,6R)-4-(2-(4-(3-(4-cyano-3-(trifluoromethyl)phenyl)-5,5-dimethyl-4-oxo-2-thioxoimidazolidin-1-yl)-2-isopropylphenoxy)ethyl)-2,6-dimethylpiperazin-1-yl)acetamide] | * (0<Y<=25%) | 100 to 500
CC1(C)C(=O)N(c2cnc(C#N)c(C(F)(F)F)c2)C(=S)N1c1ccc(OCCN2CCN(CC(=O)Nc3cccc(NC4CCC(=O)NC4=O)c3)CC2)cc1 (centres unmarked) [Example 2, hydrochloride] | ** (25%<Y<=35%) | < 100
CC1(C)C(=O)N(c2ccc(C#N)c(C(F)(F)F)c2)C(=S)N1c1ccc(OCCN2CCN(CC(=O)Nc3cc(F)cc(NC4CCC(=O)NC4=O)c3)CC2)c(F)c1 (centres unmarked) [Example 19, formate] | * (0<Y<=25%) | < 100
C[C@@H]1CN(CCOc2ccc(N3C(=S)N(c4cnc(C#N)c(C(F)(F)F)c4)C(=O)C34CCC4)cc2CCF)CCN1CC(=O)Nc1cc(Cl)cc(NC2CCC(=O)NC2=O)c1 (stereo partly drawn) [Example 142, N-(3-chloro-5-(2,6-dioxopiperidin-3-ylamino)phenyl)-2-((R)-4-(2-(4-(7-(6-cyano-5-(trifluoromethyl)pyridin-3-yl)-8-oxo-6-thioxo-5,7-diazaspiro[3.4]octan-5-yl)-2-(2-fluoroethyl)phenoxy)ethyl)-2-methylpiperazin-1-yl)acetamide] | * (0<Y<=25%) | < 100
CC1(C)C(=O)N(c2cnc(C#N)c(C(F)(F)F)c2)C(=S)N1c1ccc(OCCN2CCN(CC(=O)Nc3cc(F)cc(NC4CCC(=O)NC4=O)c3)CC2)c(CC(F)F)c1 (centres unmarked) [Example 68, 2-(4-(2-(4-(3-(6-cyano-5-(trifluoromethyl)pyridin-3-yl)-5,5-dimethyl-4-oxo-2-thioxoimidazolidin-1-yl)-2-(2,2-difluoroethyl)phenoxy)ethyl)piperazin-1-yl)-N-(3-(2,6-dioxopiperidin-3-ylamino)-5-fluorophenyl)acetamide] | * (0<Y<=25%) | < 100
CCc1cc(N2C(=S)N(c3cnc(C#N)c(C(F)(F)F)c3)C(=O)C2(C)C)ccc1OCCN1CCN(CC(=O)Nc2cccc(N[C@@H]3CCC(=O)NC3=O)c2)[C@H](C)C1 [Example 138, 2-((R)-4-(2-(4-(3-(6-cyano-5-(trifluoromethyl)pyridin-3-yl)-5,5-dimethyl-4-oxo-2-thioxoimidazolidin-1-yl)-2-ethylphenoxy)ethyl)-2-methylpiperazin-1-yl)-N-(3-((R)-2,6-dioxopiperidin-3-ylamino)phenyl)acetamide] | * (0<Y<=25%) | < 100
CCc1cc(N2C(=S)N(c3ccc(C#N)c(C(F)(F)F)c3)C(=O)C2(C)C)ccc1OCCN1CCN(CC(=O)Nc2cc(Cl)cc(NC3CCC(=O)NC3=O)c2)[C@H](C)C1 (stereo partly drawn) [Example 87, N-(3-chloro-5-(2,6-dioxopiperidin-3-ylamino)phenyl)-2-((R)-4-(2-(4-(3-(4-cyano-3-(trifluoromethyl)phenyl)-5,5-dimethyl-4-oxo-2-thioxoimidazolidin-1-yl)-2-ethylphenoxy)ethyl)-2-methylpiperazin-1-yl)acetamide] | * (0<Y<=25%) | < 100
CC(C)c1cc(N2C(=S)N(c3cnc(C#N)c(C(F)(F)F)c3)C(=O)C23CCC3)ccc1OCCN1C[C@@H](C)N(CC(=O)Nc2cccc(NC3CCC(=O)NC3=O)c2)[C@@H](C)C1 (stereo partly drawn) [Example 176, 2-((2S,6R)-4-(2-(4-(7-(6-cyano-5-(trifluoromethyl)pyridin-3-yl)-8-oxo-6-thioxo-5,7-diazaspiro[3.4]octan-5-yl)-2-isopropylphenoxy)ethyl)-2,6-dimethylpiperazin-1-yl)-N-(3-(2,6-dioxopiperidin-3-ylamino)phenyl)acetamide] | * (0<Y<=25%) | < 100
C[C@@H]1CN(CCOc2ccc(N3C(=S)N(c4ccc(C#N)c(C(F)(F)F)c4)C(=O)C3(C)C)cc2Cl)CCN1CC(=O)Nc1cccc(NC2CCC(=O)NC2=O)c1 (stereo partly drawn) [Example 276, 2-((R)-4-(2-(2-chloro-4-(3-(4-cyano-3-(trifluoromethyl)phenyl)-5,5-dimethyl-4-oxo-2-thioxoimidazolidin-1-yl)phenoxy)ethyl)-2-methylpiperazin-1-yl)-N-(3-(2,6-dioxopiperidin-3-ylamino)phenyl)acetamide] | * (0<Y<=25%) | < 100
CCc1cc(N2C(=S)N(c3ccc(C#N)c(C(F)(F)F)c3)C(=O)C2(C)C)ccc1CCCN1CCN(CC(=O)Nc2cc(F)cc(NC3CCC(=O)NC3=O)c2)CC1 (centres unmarked) [Example 88, 2-(4-(3-(4-(3-(4-cyano-3-(trifluoromethyl)phenyl)-5,5-dimethyl-4-oxo-2-thioxoimidazolidin-1-yl)-2-ethylphenyl)propyl)piperazin-1-yl)-N-(3-(2,6-dioxopiperidin-3-ylamino)-5-fluorophenyl)acetamide] | * (0<Y<=25%) | < 100
CCc1cc(N2C(=S)N(c3ccc(C#N)c(C(F)(F)F)c3)C(=O)C2(C)C)ccc1O[C@@H](C)CN1C[C@@H](C)N(CC(=O)Nc2cccc(NC3CCC(=O)NC3=O)c2)[C@@H](C)C1 (single isomer, unassigned) [Example 242] | *** (35%<Y<50%) | 500 to 1000
C[C@@H]1CN(CCOc2ccc(N3C(=S)N(c4ccc(C#N)c(Cl)c4)C(=O)C3(C)C)cc2C2CC2)C[C@H](C)N1CC(=O)Nc1cc(NC2CCC(=O)NC2=O)ccc1F (stereo partly drawn) [Example 221, 2-((2S,6R)-4-(2-(4-(3-(3-chloro-4-cyanophenyl)-5,5-dimethyl-4-oxo-2-thioxoimidazolidin-1-yl)-2-cyclopropylphenoxy)ethyl)-2,6-dimethylpiperazin-1-yl)-N-(5-(2,6-dioxopiperidin-3-ylamino)-2-fluorophenyl)acetamide] | ** (25%<Y<=35%) | < 100
C[C@@H]1CN(CC(=O)Nc2cccc(NC3CCC(=O)NC3=O)c2)[C@H](C)CN1CCOc1ccc(N2C(=S)N(c3cnc(C#N)c(C(F)(F)F)c3)C(=O)C2(C)C)cc1C(C)(F)F (stereo partly drawn) [Example 244, 2-((2R,5R)-4-(2-(4-(3-(6-cyano-5-(trifluoromethyl)pyridin-3-yl)-5,5-dimethyl-4-oxo-2-thioxoimidazolidin-1-yl)-2-(1,1-difluoroethyl)phenoxy)ethyl)-2,5-dimethylpiperazin-1-yl)-N-(3-(2,6-dioxopiperidin-3-ylamino)phenyl)acetamide] | * (0<Y<=25%) | < 100
CCc1cc(N2C(=S)N(c3cnc(C#N)c(C(F)(F)F)c3)C(=O)C23CCC3)ccc1OCCN1CCN(C2(C(=O)Nc3cccc(NC4CCC(=O)NC4=O)c3)CC2)CC1 (centres unmarked) [Example 188, 1-(4-(2-(4-(7-(6-cyano-5-(trifluoromethyl)pyridin-3-yl)-8-oxo-6-thioxo-5,7-diazaspiro[3.4]octan-5-yl)-2-ethylphenoxy)ethyl)piperazin-1-yl)-N-(3-(2,6-dioxopiperidin-3-ylamino)phenyl)cyclopropanecarboxamide] | * (0<Y<=25%) | < 100
CCc1cc(N2C(=S)N(c3ccc(C#N)c(C(F)(F)F)c3)C(=O)C2(C)C)ccc1OCCN1C[C@H](C)N(CC(=O)Nc2cccc(NC3CCC(=O)NC3=O)c2)C[C@H]1C (stereo partly drawn) [Example 122, 2-((2S,5R)-4-(2-(4-(3-(4-cyano-3-(trifluoromethyl)phenyl)-5,5-dimethyl-4-oxo-2-thioxoimidazolidin-1-yl)-2-ethylphenoxy)ethyl)-2,5-dimethylpiperazin-1-yl)-N-(3-(2,6-dioxopiperidin-3-ylamino)phenyl)acetamide] | ** (25%<Y<=35%) | 100 to 500
